{"source": "PubChem BioAssay AID2384", "about": "(Southern Research Specialized Biocontainment Screening …, 2010)", "test_system": "S. typhi GFP reporter counter-screen, fluorescence, 4 h", "assay": "S. typhi counter-screen signal inhibition – fluorescence, 4 h, counter-screen for PhoP regulon inhibitor project, dose response (AID 2384)", "note": "“And” between values parts separate entries of the source, which are not always exact repeats. Equal values may be shown once."}
{"compound": "CCOc1ccc(/C=N/NC(=O)c2[nH]ncc2Br)c(O)c1", "values": [{"measurement": "IC50", "result": 43.7, "unit": "µM"}]}
{"compound": "OC(c1cc(C(F)(F)F)nc2c(C(F)(F)F)cccc12)C1CCCCN1", "note": "(configuration not stated)", "values": [{"measurement": "IC50", "result": 19.1, "unit": "µM"}]}
{"compound": "Cc1ccc(C(=O)NNC(=S)NC(=O)c2ccccc2)cc1", "values": [{"measurement": "IC50", "result": 57.8, "unit": "µM"}]}
{"compound": "NCC/C=C1/c2ccccc2CSc2ccccc21", "values": [{"measurement": "IC50", "result": 146, "unit": "µM"}]}
{"compound": "Cc1ncc(CC(=O)n2cc(C(=O)c3cc(Cl)ccc3O)cn2)s1", "values": [{"measurement": "IC50", "result": 82.9, "unit": "µM"}]}
{"compound": "N=c1n(CCN2CCCCC2)c2ccccc2n1CC(O)COc1ccccc1", "note": "(configuration not stated)", "values": [{"measurement": "IC50", "result": 29.7, "unit": "µM"}]}
{"compound": "Cc1ccc2sc(N(CCCN(C)C)C(=O)c3ccc(Br)s3)nc2c1C", "values": [{"measurement": "IC50", "result": 36.6, "unit": "µM"}]}
{"compound": "CC(C)(C)c1ccc(OCCCCCCN2CCNCC2)cc1", "values": [{"measurement": "IC50", "result": 49.2, "unit": "µM"}]}
{"compound": "O=C1NCCCC1C(=O)N/N=C/c1cc([N+](=O)[O-])ccc1O", "note": "(configuration not stated)", "values": [{"measurement": "IC50", "result": 67.2, "unit": "µM"}]}
{"compound": "COc1cc(Br)cc(/C=N/c2ncn[nH]2)c1O", "values": [{"measurement": "IC50", "result": 61.3, "unit": "µM"}]}
{"compound": "[O-][n+]1c2c(c3c4non(O)c4ccc31)CCCC2", "values": [{"measurement": "IC50", "result": 79.2, "unit": "µM"}]}
{"compound": "CCOC(=O)N/N=C(/C)c1ccc([N+](=O)[O-])o1", "values": [{"measurement": "IC50", "result": 73.6, "unit": "µM"}]}
{"compound": "O=C(Oc1ccccc1)c1cc2ccccc2o1", "values": [{"measurement": "IC50", "result": 97, "unit": "µM"}]}
{"compound": "CN(C)c1nnnn1-c1ccc(Oc2ccccc2)cc1", "values": [{"measurement": "IC50", "result": 0.27, "unit": "µM"}]}
{"compound": "C#CCOCCOCCOCCNc1nc(N2CCN(C(=O)[C@H]([C@@H](C)CC)n3cc([C@@H](N)CO)nn3)CC2)nc(N2CCN(C(=O)[C@H](Cc3cc4ccccc4[nH]3)n3cc([C@@H](N)Cc4ccc(O)cc4)nn3)CC2)n1", "values": [{"measurement": "IC50", "result": 49.7, "unit": "µM"}]}
{"compound": "Oc1ccc(/C=N/Nc2nccnc2Cl)c(O)c1", "values": [{"measurement": "IC50", "result": 30.5, "unit": "µM"}]}
{"compound": "COc1cc(C(=O)N/N=C/c2ccc(OC(=O)c3cccc(C)c3)c(OC)c2)ccc1O", "values": [{"measurement": "IC50", "result": 108, "unit": "µM"}]}
{"compound": "COc1cc([N+](=O)[O-])cc(/C=N/NC(=O)C(O)(c2ccccc2)c2ccccc2)c1O", "values": [{"measurement": "IC50", "result": 80, "unit": "µM"}]}
{"compound": "CN(C)CCCN(C(=O)c1ccc2c(c1)CCCC2)c1nc2ccc(Cl)cc2s1", "values": [{"measurement": "IC50", "result": 54.1, "unit": "µM"}]}
{"compound": "CC1CCc2c(N3CCC(O)CC3)c(F)cc3c(=O)c(C(=O)O)cn1c23", "note": "(configuration not stated)", "values": [{"measurement": "IC50", "result": 18.9, "unit": "µM"}]}
{"compound": "CC1CCN(CCOCCOc2ccc(Br)cc2Cl)CC1", "values": [{"measurement": "IC50", "result": 97.8, "unit": "µM"}]}
{"compound": "NC1=NC[C@H](CC2CCCCC2)N1CCc1cc(C(F)(F)F)cc(C(F)(F)F)c1", "values": [{"measurement": "IC50", "result": 35.2, "unit": "µM"}]}
{"compound": "O=C(C[n+]1cc(Br)cc2ccccc21)c1ccc(Cl)cc1", "values": [{"measurement": "IC50", "result": 32.7, "unit": "µM"}]}
{"compound": "O=C(CCN1CCOCC1)N/N=C/c1cc(Br)cc(Br)c1O", "values": [{"measurement": "IC50", "result": 27.3, "unit": "µM"}]}
{"compound": "O=C(N/N=C/c1c(O)ccc2ccccc12)c1ccc(CO)nc1", "values": [{"measurement": "IC50", "result": 81.7, "unit": "µM"}]}
{"compound": "COc1ccc(OCc2n(CC(=O)OC3CC(C)CCC3C(C)C)c3ccccc3[n+]2C)cc1", "note": "(configuration not stated)", "values": [{"measurement": "IC50", "result": 36.6, "unit": "µM"}]}
{"compound": "O=c1[nH]c(=S)ccn1C1OC(CO)C(O)C1O", "note": "(configuration not stated)", "values": [{"measurement": "IC50", "result": 12.4, "unit": "µM"}]}
{"compound": "O=C(O)c1cccc(N2C(=O)CSC2=S)c1", "values": [{"measurement": "IC50", "result": 68, "unit": "µM"}]}
{"compound": "O=C(N/N=C/c1cc([N+](=O)[O-])ccc1O)C(O)(c1ccccc1)c1ccccc1", "values": [{"measurement": "IC50", "result": 54.9, "unit": "µM"}]}
{"compound": "O=C(Nc1cccc([N+](=O)[O-])c1)Nc1cccs1", "values": [{"measurement": "IC50", "result": 38.9, "unit": "µM"}]}
{"compound": "COc1ccc(OCC(O)CNc2ccc(Br)cc2)cc1", "note": "(configuration not stated)", "values": [{"measurement": "IC50", "result": 3.74, "unit": "µM"}]}
{"compound": "c1ccc2c(c1)C(=NC1CCCCC1)NC2=NC1CCCCC1", "values": [{"measurement": "IC50", "result": 77.2, "unit": "µM"}]}
{"compound": "CSc1ccc2c(c1)C(N1CCN(C)CC1)Cc1ccc(F)cc1S2", "note": "(configuration not stated)", "values": [{"measurement": "IC50", "result": 23.9, "unit": "µM"}]}
{"compound": "Clc1ccc(OCCCN2CCCC2)cc1Cl", "values": [{"measurement": "IC50", "result": 28.3, "unit": "µM"}]}
{"compound": "CC1COc2c(N3CCN(C)CC3)c(F)cc3c(=O)c(C(=O)O)cn1c23", "note": "(configuration not stated)", "values": [{"measurement": "IC50", "result": 1.73, "unit": "µM"}]}
{"compound": "O=C(Nc1nnc(C2COc3ccccc3O2)o1)c1ccc(F)cc1", "note": "(configuration not stated)", "values": [{"measurement": "IC50", "result": 37.8, "unit": "µM"}]}
{"compound": "CN1CCN(CCCN2c3ccccc3Sc3ccc(Cl)cc32)CC1", "values": [{"measurement": "IC50", "result": "41.7 µM and 23.8 µM"}]}
{"compound": "CCn1nc(C(=O)O)c(=O)c2cc3c(cc21)OCO3", "values": [{"measurement": "IC50", "result": 84.1, "unit": "µM"}]}
{"compound": "CCN(CC)CCn1c(=N)n(CC(O)COc2cccc(C)c2)c2ccccc21", "note": "(configuration not stated)", "values": [{"measurement": "IC50", "result": 23.3, "unit": "µM"}]}
{"compound": "Cc1ccc2nc(N(CCCN(C)C)C(=O)c3ccc4c(c3)CCCC4)sc2c1", "values": [{"measurement": "IC50", "result": 31.8, "unit": "µM"}]}
{"compound": "Cc1ccc(NC(=O)CSC(N)=O)cc1Cl", "values": [{"measurement": "IC50", "result": 82.1, "unit": "µM"}]}
{"compound": "O=C(C[n+]1cc(-c2ccc(Cl)cc2)n2c1CCC2)Nc1nc(-c2ccccc2)cs1", "values": [{"measurement": "IC50", "result": 20.1, "unit": "µM"}]}
{"compound": "CN1CCN(C(c2cccc(Cl)c2)c2ccccc2Cl)CC1", "note": "(configuration not stated)", "values": [{"measurement": "IC50", "result": 68.2, "unit": "µM"}]}
{"compound": "COc1cc([N+](=O)[O-])cc(/C=N/NC(=O)C(C)Nc2cccc(C)c2)c1O", "note": "(configuration not stated)", "values": [{"measurement": "IC50", "result": 136, "unit": "µM"}]}
{"compound": "COc1ccc(CNCC(O)COc2ccc(C)cc2[N+](=O)[O-])cc1", "note": "(configuration not stated)", "values": [{"measurement": "IC50", "result": 128, "unit": "µM"}]}
{"compound": "Cc1ccc2c(c1)c1c(n2CC(O)CNC2CCCCC2)CCCC1", "note": "(configuration not stated)", "values": [{"measurement": "IC50", "result": 87.1, "unit": "µM"}]}
{"compound": "Cc1ccc2c(c1)C1CN(C)CCC1N2C(=O)COc1ccccc1F", "note": "(configuration not stated)", "values": [{"measurement": "IC50", "result": 110, "unit": "µM"}]}
{"compound": "CCCCCSc1cc(OC)c(CCNC)cc1OC", "values": [{"measurement": "IC50", "result": 52.2, "unit": "µM"}]}
{"compound": "O=C(Nc1ccc(-c2nc3ccccc3[nH]2)cc1)c1ccco1", "values": [{"measurement": "IC50", "result": 94, "unit": "µM"}]}
{"compound": "COc1cc([N+](=O)[O-])cc(/C=N/NC(=O)c2cccnc2)c1O", "values": [{"measurement": "IC50", "result": 76.1, "unit": "µM"}]}
{"compound": "O=C(CCN1CCN(c2ccccc2)CC1)N/N=C/c1ccc([N+](=O)[O-])o1", "values": [{"measurement": "IC50", "result": 131, "unit": "µM"}]}
{"compound": "O=C(Cc1ccccc1)N/N=C/c1cc(Br)cc(Cl)c1O", "values": [{"measurement": "IC50", "result": 26.4, "unit": "µM"}]}
{"compound": "CN1CCC(OC(=O)c2cccc(Br)c2)CC1", "values": [{"measurement": "IC50", "result": 55.9, "unit": "µM"}]}
{"compound": "CCn1cc(C(=O)O)c(=O)c2cc(F)c(N3CCN(C(=O)Nc4ccccc4)CC3)cc21", "values": [{"measurement": "IC50", "result": 50.8, "unit": "µM"}]}
{"compound": "Nc1ncncc1-c1ccc(Cl)cc1", "values": [{"measurement": "IC50", "result": 65.5, "unit": "µM"}]}
{"compound": "Cc1cc(Br)ccc1OCCCCNCCO", "values": [{"measurement": "IC50", "result": 30.7, "unit": "µM"}]}
{"compound": "N=c1n(CC(=O)c2ccc(Br)s2)c2ccccc2n1Cc1ccccc1", "values": [{"measurement": "IC50", "result": 27.3, "unit": "µM"}]}
